Patent publication US20250177396A1, “POLO-LIKE KINASE 4 (PLK4) INHIBITORS, PHARMACEUTICAL COMPOSITIONS, METHODS OF PREPARATION AND USES THEREOF” (Repare Therapeutics Inc., priority 2022, published 2025)

biological target: T1, PLK4 (Homo sapiens, UniProt O00444); experiment: PLK4 NanoBRET target engagement assay; type: binding; details: HEK293 T cells transfected with PLK4 NanoLuc fusion vector; K-5 tracer; 2 hrs incubation
T1 construct: expressed in transfected cells; host or cells: HEK293 T cells (ATCC CRL-3216)
T1 sequence (O00444 1-970): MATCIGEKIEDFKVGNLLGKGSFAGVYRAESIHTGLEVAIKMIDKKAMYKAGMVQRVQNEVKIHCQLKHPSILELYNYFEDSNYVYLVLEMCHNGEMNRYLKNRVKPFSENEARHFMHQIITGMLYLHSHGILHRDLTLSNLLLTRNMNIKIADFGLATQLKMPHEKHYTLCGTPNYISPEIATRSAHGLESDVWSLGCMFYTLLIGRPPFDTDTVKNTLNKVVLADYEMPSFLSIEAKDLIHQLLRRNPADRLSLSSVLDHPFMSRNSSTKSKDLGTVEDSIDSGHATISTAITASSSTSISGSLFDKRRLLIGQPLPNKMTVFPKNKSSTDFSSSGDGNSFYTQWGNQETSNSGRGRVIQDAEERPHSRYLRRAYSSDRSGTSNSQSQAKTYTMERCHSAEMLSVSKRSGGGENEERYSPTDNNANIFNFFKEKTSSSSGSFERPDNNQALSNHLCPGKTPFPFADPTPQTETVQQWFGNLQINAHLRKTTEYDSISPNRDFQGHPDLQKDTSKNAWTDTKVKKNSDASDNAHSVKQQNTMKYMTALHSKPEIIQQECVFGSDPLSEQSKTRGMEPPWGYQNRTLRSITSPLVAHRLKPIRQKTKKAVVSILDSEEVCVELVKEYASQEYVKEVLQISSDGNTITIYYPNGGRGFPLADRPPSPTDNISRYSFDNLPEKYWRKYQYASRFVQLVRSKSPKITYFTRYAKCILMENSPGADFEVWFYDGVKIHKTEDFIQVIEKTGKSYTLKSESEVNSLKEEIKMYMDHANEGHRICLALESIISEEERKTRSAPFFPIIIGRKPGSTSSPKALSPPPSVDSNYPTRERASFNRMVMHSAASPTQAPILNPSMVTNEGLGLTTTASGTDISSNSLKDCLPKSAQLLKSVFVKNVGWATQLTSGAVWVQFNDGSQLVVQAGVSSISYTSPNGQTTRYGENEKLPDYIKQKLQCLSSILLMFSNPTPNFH
How it was run: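 HEK293T cells transiently expressing PLK4-NanoLuc, plated at 17000 cells/well with K-5 tracer and compound, incubated 2 h at 37 °C/5% CO2. After substrate/inhibitor mix, 610/450 nm emission ratio ×1000 gave mBRET; IC50 from 4-parameter fit.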

| Structure (SMILES) | IC50 [nM] |
| --- | --- |
| Cc1cc(Nc2nc(N(C)c3ccc(S(=O)(=O)C(C)C)cc3)nc(-c3cnn(C)c3)c2C2CC2)n[nH]1 [Compound 81] | 73 |
| COc1c(Nc2cc(C)[nH]n2)nc(N(C)c2cccc(C(=O)N(C)C)c2F)nc1-c1cnn(C)c1 [Compound 71] | 740 |
| Cc1cnn(-c2nc(N(C)c3ccc(S(C)(=O)=O)cc3F)nc(Nc3cc(C)[nH]n3)c2C2CC2)c1 [Compound 112] | 110 |
| Cc1cc(Nc2nc(N(C)c3c(F)cc(S(C)(=O)=O)cc3F)nc(-c3cn(C4CC(O)C4)cn3)c2C2CC2)n[nH]1 (stereo not drawn) [Compound 257] | 33 |
| Cc1cc(Nc2nc(N(C)c3c(F)cc(S(C)(=O)=O)cc3F)nc(-c3ccn(C)c(=O)c3)c2C2CC2)n[nH]1 [Compound 205] | 22 |
| Cc1cc(Nc2nc(N(C)c3c(F)cc(CC(=O)N(C)C)cc3F)nc(-c3cn(C)cn3)c2C2CC2)n[nH]1 [Compound 361] | > 5000 |
| COc1c(Nc2cc(C)[nH]n2)nc(Oc2ccc(NS(C)(=O)=O)cc2)nc1-c1cnn(C)c1 [Compound 32] | 2800 |
| Cc1cc(Nc2nc(N(C)c3ccc(S(C)(=O)=O)cc3F)nc(-c3cnn(C)n3)c2C2CC2)n[nH]1 [Compound 109] | 49 |
| Cc1cc(Nc2nc(N(C)c3c(F)cc(S(C)(=O)=O)cc3F)nc(N3CCO[C@H](C(F)(F)F)C3)c2C2CC2)n[nH]1 [Compound 299] | 180 |
| COc1c(Nc2cc(C)[nH]n2)nc(N(C)c2ccc(C#N)cc2F)nc1-c1cnn(C)c1 [Compound 63] | 280 |
| Cc1cc(Nc2nc(N(C)c3c(F)cc(S(C)(=O)=O)cc3F)cc(-c3cnn(C)c3)c2C2CC2)n[nH]1 [Compound 92] | 53 |
| CCN(c1nc(Nc2cc(C)[nH]n2)c(OC)c(-c2cnn(C)c2)n1)c1ccc(S(C)(=O)=O)cc1F [Compound 3, N^2-ethyl-N^2-(2-fluoro-4-(methylsulfonyl)phenyl)-5-methoxy-N^4-(5-methyl-1H-pyrazol-3-yl)-6-(1-methyl-1H-pyrazol-4-yl)pyrimidine-2,4-diamine] | 68 |
| Cc1cc(Nc2nc(N(C)c3c(F)cc(S(C)(=O)=O)cc3F)nc(-c3cnn(C)c3C(=O)O)c2C2CC2)n[nH]1 [Compound 289] | 660 |
| CN(c1nc(Nc2cc(C3CC3)[nH]n2)c(C2CC2)c(-c2cn(C)cn2)n1)c1ccc(S(C)(=O)=O)cc1F [Compound 315] | 23 |
| COc1c(Nc2cc(C)[nH]n2)nc(N(C)c2ccc(CN3CCOC3=O)cc2)nc1-c1cnn(C)c1 [Compound 46] | 110 |
| Cc1cc(Nc2nc(N(C)c3c(F)cc(C4CCOCC4)cc3F)nc(-c3cn(C)cn3)c2C2CC2)n[nH]1 [Compound 350] | 31 |
| CCCS(=O)(=O)c1ccc(N(C)c2nc(Nc3cc(C)[nH]n3)c(OC)c(-c3cnn(C)c3)n2)cc1 [Compound 51] | 220 |
| COC(=O)CN(c1nc(Nc2cc(C)[nH]n2)c(OC)c(-c2cnn(C)c2)n1)c1ccc(S(C)(=O)=O)cc1F [Compound 90] | 370 |
| COc1c(Nc2cc(C)[nH]n2)nc(N(C)c2ccc(S(C)(=O)=O)cc2)nc1-c1cnn(C)c1 [Compound 83] | 190 |
| COc1c(Nc2cc(C)[nH]n2)nc(Sc2ccc(S(C)(=O)=O)cc2F)c(C#N)c1-c1cnn(C)c1 [Compound 101] | 120 |
| COc1c(Nc2cc(C)[nH]n2)nc(N(C)c2ccc(-c3nnc(C)o3)cc2)nc1-c1cnn(C)c1 [Compound 72] | 820 |
| COc1ccc(F)c(N(C)c2nc(Nc3cc(C)[nH]n3)c(OC)c(-c3cnn(C)c3)n2)c1 [Compound 74] | 1200 |
| Cc1cc(Nc2nc(Nc3ccc(S(C)(=O)=O)cc3F)nc(-c3cn(C)cn3)c2C2CC2)n[nH]1 [Compound 16, 5-cyclopropyl-N^2-(2-fluoro-4-(methylsulfonyl)phenyl)-6-(1-methyl-1H-imidazol-4-yl)-N^4-(5-methyl-1H-pyrazol-3-yl)pyrimidine-2,4-diamine] | 200 |
| Cc1cc(Nc2nc(N(C)c3c(F)cc(S(C)(=O)=O)cc3F)nc(-c3cn(C)c(C(C)O)n3)c2C2CC2)n[nH]1 (stereo not drawn) [Compound 217] | 19 |
| Cc1cc(Nc2nc(N(C)c3ccc(S(C)(=O)=O)cc3F)nc(-n3cncn3)c2C2CC2)n[nH]1 [Compound 105] | 740 |

Next, values leading:

| IC50 [nM] | Structure (SMILES) |
| --- | --- |
| 10 | Cc1cc(Nc2nc(N(C)c3c(F)cc(S(C)(=O)=O)cc3F)nc(-c3cn[nH]c3)c2C2CC2)n[nH]1 [Compound 40] |
| 6 | Cc1cc(Nc2nc(N(C)c3c(F)cc(S(C)(=O)=O)cc3F)nc(-c3cc[nH]n3)c2C2CC2)n[nH]1 [Compound 106] |
| 2 | COCc1c(-c2nc(N(C)c3c(F)cc(S(C)(=O)=O)cc3F)nc(Nc3cc(C)[nH]n3)c2C2CC2)cnn1C [Compound 249] |
| 8 | Cc1cc(Nc2nc(N(C)c3c(F)cc(S(C)(=O)=O)cc3F)nc(-c3cnn(CC(C)(C)O)c3C)c2C2CC2)n[nH]1 [Compound 336] |
| 8 | Cc1cc(Nc2nc(N(C)c3cc(F)c(S(C)(=O)=O)cc3F)nc(-c3cn4c(n3)CCOC4)c2C2CC2)n[nH]1 [Compound 210] |
| 4 | Cc1cc(Nc2nc(N(C)c3c(F)cc(S(C)(=O)=O)cc3F)nc(-c3cnn(CC#N)c3)c2C2CC2)n[nH]1 [Compound 206] |
| 6 | Cc1cc(Nc2nc(N(C)c3cc(F)c(S(C)(=O)=O)cc3F)nc(-c3cn(C4CC4)cn3)c2C2CC2)n[nH]1 [Compound 207] |
| 2 | Cc1cc(Nc2nc(N(C)c3c(F)cc(S(C)(=O)=O)cc3F)nc(-c3cnn(C)c3CC#N)c2C2CC2)n[nH]1 [Compound 308] |
| 4 | Cc1cc(Nc2nc(N(C)c3c(F)cc(S(C)(=O)=O)cc3F)nc(-c3cnn(C)c3N(C)C)c2C2CC2)n[nH]1 [Compound 320] |
| 2 | COC1CCc2ncc(-c3nc(N(C)c4c(F)cc(S(C)(=O)=O)cc4F)nc(Nc4cc(C)[nH]n4)c3C3CC3)n2C1 (stereo not drawn) [Compound 255] |
| 10 | Cc1cc(Nc2nc(N(C)c3c(F)cc(S(C)(=O)=O)c(C)c3F)nc(-c3cnn(C)c3)c2C2CC2)n[nH]1 [Compound 114] |
| 6 | Cc1cc(Nc2nc(N(C)c3c(F)cc(S(C)(=O)=O)cc3F)nc(-c3cnn4c3OCCC4)c2C2CC2)n[nH]1 [Compound 203] |
| 5 | CCn1cnc(-c2nc(N(C)c3c(F)cc(S(C)(=O)=O)cc3F)nc(Nc3cc(C)[nH]n3)c2C2CC2)c1 [Compound 136] |
| 5 | COc1nn(C)cc1-c1nc(N(C)c2c(F)cc(S(C)(=O)=O)cc2F)nc(Nc2cc(C)[nH]n2)c1C1CC1 [Compound 147] |
| 6 | Cc1cc(Nc2nc(N(C)c3c(F)cc(S(C)(=O)=O)cc3F)nc(-c3cnn(CCS(C)(=O)=O)c3)c2C2CC2)n[nH]1 [Compound 172] |
| 11 | Cc1cc(Nc2nc(N(C)c3c(F)cc(S(C)(=O)=O)cc3F)nc(-c3cnc(C)o3)c2C2CC2)n[nH]1 [Compound 156] |
| 4 | COCCn1ncc(-c2nc(N(C)c3c(F)cc(S(C)(=O)=O)cc3F)nc(Nc3cc(C)[nH]n3)c2C2CC2)c1C [Compound 161] |
| 7 | Cc1cc(Nc2nc(N(C)c3c(F)cc(S(C)(=O)=O)cc3F)nc(-c3cncn3C)c2C2CC2)n[nH]1 [Compound 134] |
| 19 | CC(=O)c1c(-c2nc(N(C)c3c(F)cc(S(C)(=O)=O)cc3F)nc(Nc3cc(C)[nH]n3)c2C2CC2)cnn1C [Compound 307] |
| 9 | Cc1cc(Nc2nc(N(C)c3ccc(S(C)(=O)=O)cc3F)nc(-c3cn(C4CC4)cn3)c2C2CC2)n[nH]1 [Compound 208] |
| 5 | Cc1cc(Nc2nc(N(C)c3c(F)cc(S(=O)(=O)C4CC4)cc3F)nc(-c3cn(C)cn3)c2C2CC2)n[nH]1 [Compound 347] |
| 6 | COc1c(Nc2cc(C)[nH]n2)nc(N(C)c2c(F)cc(S(C)(=O)=O)cc2F)nc1-c1cnn(C)c1 [Compound 8, N^2-(2,6-difluoro-4-(methylsulfonyl)phenyl)-5-methoxy-N^2-methyl-N^4-(5-methyl-1H-pyrazol-3-yl)-6-(1-methyl-1H-pyrazol-4-yl)pyrimidine-2,4-diamine] |
| 11 | Cc1cc(Nc2nc(N(C)c3c(F)cc(S(C)(=O)=O)cc3F)nc(-c3cnn(C)c3C(=O)N(C)C3CC3)c2C2CC2)n[nH]1 [Compound 333] |
| 17 | Cc1cc(Nc2nc(N(C)c3ccc(S(C)(=O)=O)cc3F)nc(-c3cn(C(C)C)cn3)c2C2CC2)n[nH]1 [Compound 199] |
| 9 | Cc1cc(Nc2nc(N(C)c3c(F)cc(S(C)(=O)=O)cc3F)nc(-c3cnn4cccnc34)c2C2CC2)n[nH]1 [Compound 326] |
| 6 | Cc1cc(Nc2nc(N(C)c3c(F)cc(S(C)(=O)=O)cc3F)nc(-c3cn(C(F)F)cn3)c2C2CC2)n[nH]1 [Compound 128] |
